Laboratory results: EP0908457B1, “3-(1,2-benzisothiazol- and isoxazol-5-Y1)-2,4(1H,3H)-pyrimidinedione or thione and 3-(1,2-benzisothiazol- and isoxazol-5-y1)-4(3H)-pyrimidinone or thione herbicidal agents” (BASF AKTIENGESELLSCHAFT, priority 1997, dated 1999)

Tests used:
Format in all cases: in vivo
[1] = system: Echinochloa oryzoides (Ard.) Fritsch.; experiment: Preemergence weed control under flooded paddy conditions, ECHORC (Watergrass (Calif.)); details: flooded paddy; for ECHORC herbicidal rating / herbicidal effect rating, ECHORC: preemergence, rated three to four weeks after treatment; for ECHORC: preemergence weeds, herbicidal effect rating 0-9, three to four weeks after treatment; on herbicidal effect rating, ECHORC: meaning of each grade not given here
Cyperus iria = experiment: Preemergence weed control under flooded paddy conditions, CYPIR (Rice Flatsedge); details: flooded paddy; for CYPIR herbicidal rating / herbicidal effect rating, CYPIR: preemergence, rated three to four weeks after treatment; for CYPIR: preemergence weeds, herbicidal effect rating 0-9, three to four weeks after treatment; on herbicidal effect rating, CYPIR: meaning of each grade not given here
[2] = system: Cyperus serotinus, Rottb.; experiment: Preemergence weed control under flooded paddy conditions, CYPSE (Flatsedge); details: for CYPSE herbicidal rating / herbicidal effect rating, CYPSE: preemergence, rated three to four weeks after treatment; for CYPSE: preemergence weeds, herbicidal effect rating 0-9, three to four weeks after treatment; on herbicidal effect rating, CYPSE: meaning of each grade not given here
[3] = system: Monochoria vaginalis, Presl.; experiment: Preemergence weed control under flooded paddy conditions, MOOVA (Monochoria); details: flooded paddy; for MOOVA herbicidal rating / herbicidal effect rating, MOOVA: preemergence, rated three to four weeks after treatment; for MOOVA: preemergence weeds, herbicidal effect rating 0-9, three to four weeks after treatment; on herbicidal effect rating, MOOVA: meaning of each grade not given here
Sagittaria pygmaea, L. = experiment: Preemergence weed control under flooded paddy conditions, SAGPY (Arrowhead (Pygmaea)); details: flooded paddy; for SAGPY herbicidal rating / herbicidal effect rating, SAGPY: preemergence, rated three to four weeks after treatment; for SAGPY: preemergence weeds, herbicidal effect rating 0-9, three to four weeks after treatment; on herbicidal effect rating, SAGPY: meaning of each grade not given here

Structure (SMILES): Cn1c(C(F)(F)F)cc(=O)n(-c2ccc3snc(COC(=O)c4cccs4)c3c2)c1=O [Example 477, 2,4(1H,3H)-Pyrimidinedione, 3-[3-(hydroxymethyl)-1,2-benzisothiazol-5-yl]-1-methyl-6-(trifluoromethyl)-, 2-thiophenecarboxylate (ester)]
- ECHORC herbicidal rating ([1]; 0.0320 kg/ha): 0.0
- ECHORC herbicidal rating ([1]; 0.0620 kg/ha): 0.0
- ECHORC herbicidal rating ([1]; 0.1250 kg/ha): 2.0
- ECHORC herbicidal rating ([1]; 0.2500 kg/ha): 3.0
- CYPIR herbicidal rating (Cyperus iria; 0.0320 kg/ha): 4.0
- CYPIR herbicidal rating (Cyperus iria; 0.0620 kg/ha): 4.0
- CYPIR herbicidal rating (Cyperus iria; 0.1250 kg/ha): 5.0
- CYPIR herbicidal rating (Cyperus iria; 0.2500 kg/ha): 6.0
- CYPSE herbicidal rating ([2]; 0.0320 kg/ha): 3.0
- CYPSE herbicidal rating ([2]; 0.0620 kg/ha): 3.0
- CYPSE herbicidal rating ([2]; 0.2500 kg/ha): 3.0
- MOOVA herbicidal rating ([3]; 0.0320 kg/ha): 3.0
- MOOVA herbicidal rating ([3]; 0.0620 kg/ha): 3.0
- MOOVA herbicidal rating ([3]; 0.1250 kg/ha): 6.0
- MOOVA herbicidal rating ([3]; 0.2500 kg/ha): 7.0
- SAGPY herbicidal rating (Sagittaria pygmaea, L.; 0.0320 kg/ha): 0.0
- SAGPY herbicidal rating (Sagittaria pygmaea, L.; 0.0620 kg/ha): 0.0
- SAGPY herbicidal rating (Sagittaria pygmaea, L.; 0.1250 kg/ha): 0.0
- SAGPY herbicidal rating (Sagittaria pygmaea, L.; 0.2500 kg/ha): 2.0

Structure (SMILES): Cn1c(C(F)(F)F)cc(=O)n(-c2ccc3snc(COC(=O)Cc4ccc(Cl)cc4)c3c2)c1=O [Example 452, 2,4(1H,3H)-Pyrimidinedione, 3-[3-(hydroxymethyl)-1,2-benzisothiazol-5-yl]-1-methyl-6-(trifluoromethyl)-, (p-chlorophenyl)acetate (ester)]
- ECHORC ([1]; 0.0320 kg/ha): 0.0
- ECHORC ([1]; 0.0620 kg/ha): 3.0
- ECHORC ([1]; 0.1250 kg/ha): 3.0
- ECHORC ([1]; 0.2500 kg/ha): 7.0
- CYPIR (Cyperus iria; 0.0320 kg/ha): 4.0
- CYPIR (Cyperus iria; 0.0620 kg/ha): 6.0
- CYPIR (Cyperus iria; 0.1250 kg/ha): 9.0
- CYPIR (Cyperus iria; 0.2500 kg/ha): 9.0
- CYPSE ([2]; 0.0320 kg/ha): 0.0
- CYPSE ([2]; 0.2500 kg/ha): 7.0
- MOOVA ([3]; 0.0320 kg/ha): 9.0
- MOOVA ([3]; 0.0620 kg/ha): 9.0
- MOOVA ([3]; 0.1250 kg/ha): 9.0
- MOOVA ([3]; 0.2500 kg/ha): 9.0
- SAGPY (Sagittaria pygmaea, L.; 0.0320 kg/ha): 0.0
- SAGPY (Sagittaria pygmaea, L.; 0.0620 kg/ha): 0.0
- SAGPY (Sagittaria pygmaea, L.; 0.1250 kg/ha): 0.0
- SAGPY (Sagittaria pygmaea, L.; 0.2500 kg/ha): 2.0

Structure (SMILES): Cc1ccc(OCC(=O)n2cnc3ccccc32)c(-c2nsc3ccc(-n4c(=O)cc(C(F)(F)F)n(C)c4=O)cc23)c1 [Example 62]
- herbicidal effect rating, ECHORC ([1]; 0.0313 kg/ha): 6.0
- herbicidal effect rating, ECHORC ([1]; 0.0625 kg/ha): 9.0
- herbicidal effect rating, ECHORC ([1]; 0.1250 kg/ha): 9.0
- herbicidal effect rating, ECHORC ([1]; 0.2500 kg/ha): 9.0
- herbicidal effect rating, CYPIR (Cyperus iria; 0.0313 kg/ha): 4.0
- herbicidal effect rating, CYPIR (Cyperus iria; 0.0625 kg/ha): 6.0
- herbicidal effect rating, CYPIR (Cyperus iria; 0.1250 kg/ha): 9.0
- herbicidal effect rating, CYPIR (Cyperus iria; 0.2500 kg/ha): 9.0
- herbicidal effect rating, CYPSE ([2]; 0.0313 kg/ha): 0.0
- herbicidal effect rating, CYPSE ([2]; 0.0625 kg/ha): 1.0
- herbicidal effect rating, CYPSE ([2]; 0.1250 kg/ha): 2.0
- herbicidal effect rating, CYPSE ([2]; 0.2500 kg/ha): 9.0
- herbicidal effect rating, MOOVA ([3]; 0.0313 kg/ha): 9.0
- herbicidal effect rating, MOOVA ([3]; 0.0625 kg/ha): 9.0
- herbicidal effect rating, MOOVA ([3]; 0.1250 kg/ha): 9.0
- herbicidal effect rating, MOOVA ([3]; 0.2500 kg/ha): 9.0
- herbicidal effect rating, SAGPY (Sagittaria pygmaea, L.; 0.0313 kg/ha): 0.0
- herbicidal effect rating, SAGPY (Sagittaria pygmaea, L.; 0.0625 kg/ha): 1.0
- herbicidal effect rating, SAGPY (Sagittaria pygmaea, L.; 0.1250 kg/ha): 4.0
- herbicidal effect rating, SAGPY (Sagittaria pygmaea, L.; 0.2500 kg/ha): 7.0
